The values below are quoted from earlier work in patent US20200319191A1, “MOLECULAR PROFILING FOR CANCER” (Caris MPI, Inc., priority 2015, published 2020).

For this series the following is noted: for sensitivity by EGFRvIII expression: preliminary studies; for Evid. Level, ER Positive (IHC) / Bene. Level, ER Positive (IHC): Hormonal Agents.

Structures are written as SMILES. Read-outs that look alike come from different tables or passages of the source.

Take `COc1cc2ncnc(Nc3ccc(F)c(Cl)c3)c2cc1OCCCN1CCOCC1` [gefitinib]: the “sensitivity by EGFRvIII expression” value is “higher sensitivity to erlotinib and gefitinib, as well as to pan-Her inhibitors including”.

Regarding `COc1cccc2c1C(=O)c1c(O)c3c(c(O)c1C2=O)C[C@@](O)(C(C)=O)C[C@@H]3O[C@H]1C[C@H](N)[C@H](O)[C@H](C)O1` [daunorubicin], the “sensitivity of AML tumor cells by NPM status” value (AML tumor cells with mutant NPM) was “research shows AML tumor cells with mutant NPM are more sensitive to”.

For `C[C@@H](Oc1cc(-c2cnn(C3CCNCC3)c2)cnc1N)c1c(Cl)ccc(F)c1Cl` [crizotinib], the “resistance by ALK secondary mutations” value (ALK secondary mutations found in NSCLC) is “mutations found in NSCLC have been associated with acquired resistance to ALK”. Also, the “sensitivity and response by ROS1 status” value (ROS-rearranged NSCLC patients, clinical data) is listed as “improved response to the MET/ALK/ROS inhibitor, crizotinib”.

In the case of `N#Cc1ccc(C(c2ccc(C#N)cc2)n2cncn2)cc1` [letrozole], the “Evid. Level, ER Positive (IHC)” value (ER Positive (IHC)=F) was 1. Under “ER Positive (IHC)=T”, the “Bene. Level, ER Positive (IHC)” value was 1 and the “Evid. Level, ER Positive (IHC)” value is recorded as 1.

Turning to `COc1cc2ncnc(Nc3ccc(F)c(Cl)c3)c2cc1NC(=O)/C=C/CN1CCCCC1` [dacomitinib], the “sensitivity by EGFRvIII expression” value was “higher sensitivity to erlotinib and gefitinib, as well as to pan-Her inhibitors including”.

Turning to `CC(=O)O[C@H]1C(=O)[C@@]2(C)[C@H]([C@H](OC(=O)c3ccccc3)[C@]3(O)C[C@H](OC(=O)[C@H](O)[C@@H](NC(=O)c4ccccc4)c4ccccc4)C(C)=C1C3(C)C)[C@]1(OC(C)=O)CO[C@@H]1C[C@@H]2O` [paclitaxel], the “PGP Positive (IHC) Bene. Level” value is 1 (IHC positive: TLE3 F, TUBB3 F, PGP F); 2 (IHC positive: TLE3 F, TUBB3 F, PGP T); 1 (IHC positive: TLE3 F, TUBB3 No Data, PGP F); 3 (IHC positive: TLE3 F, TUBB3 No Data, PGP T); 1 (IHC positive: TLE3 F, TUBB3 T, PGP F); 3 (IHC positive: TLE3 F, TUBB3 T, PGP T). The “PGP Positive (IHC) Bene. Level” value runs as follows: (IHC positive: TLE3 No Data, TUBB3 F, PGP F) 1; (IHC positive: TLE3 No Data, TUBB3 F, PGP T) 2; (IHC positive: TLE3 No Data, TUBB3 No Data, PGP F) 1; (IHC positive: TLE3 No Data, TUBB3 No Data, PGP T) 3; (IHC positive: TLE3 No Data, TUBB3 T, PGP F) 1; (IHC positive: TLE3 No Data, TUBB3 T, PGP T) 3. In addition, the “PGP Positive (IHC) Bene. Level” value runs as follows: (IHC positive: TLE3 T, TUBB3 F, PGP F) 1; (IHC positive: TLE3 T, TUBB3 F, PGP T) 2; (IHC positive: TLE3 T, TUBB3 No Data, PGP F) 1; (IHC positive: TLE3 T, TUBB3 No Data, PGP T) 2; (IHC positive: TLE3 T, TUBB3 T, PGP F) 1; (IHC positive: TLE3 T, TUBB3 T, PGP T) 2. The “PGP Positive (IHC) Evid. Level” value (taxanes rule, Ref. No. 28) is given as 3.

Take `CC(=O)O[C@]1(C(C)=O)CC[C@H]2[C@@H]3C=C(C)C4=CC(=O)CC[C@]4(C)[C@H]3CC[C@@]21C` [megestrol acetate]: the “Evid. Level, ER Positive (IHC)” value runs as follows: (ER Positive (IHC)=F) 1; (ER Positive (IHC)=T) 1. Also, the “Bene. Level, ER Positive (IHC)” value (ER Positive (IHC)=T) was 1.

For `O=C(O)C(=O)O.[NH-][C@@H]1CCCC[C@H]1[NH-].[Pt+2]` [oxaliplatin], the “disease control rate by APC status” value (APC wild type patients, metastatic setting, colorectal) is “event in colorectal tumorigenesis. APC wild type patients have shown better disease”.

As to `CC[C@@]1(O)C(=O)OCc2c1cc1n(c2=O)Cc2cc3c(CN(C)C)c(O)ccc3nc2-1` [topotecan], where the note is “expression of TOPOI”, the “response by TOPOI expression” value was “DNA molecule. Expression of TOPOI has been associated with response to TOPOI”.

Regarding `CN(C)CCOc1ccc(/C(=C(/CCCl)c2ccccc2)c2ccccc2)cc1` [toremifene], the “Evid. Level, ER Positive (IHC)” value (ER Positive (IHC)=F) is listed as 1. For the same compound, for the setting “ER Positive (IHC)=T”, the “Bene. Level, ER Positive (IHC)” value is on record as 1 and the “Evid. Level, ER Positive (IHC)” value is listed as 1.

Consider `C[C@]12CC[C@@H]3c4ccc(O)cc4C[C@@H](CCCCCCCCC[S+]([O-])CCCC(F)(F)C(F)(F)F)[C@H]3[C@@H]1CC[C@@H]2O` (stereo partly drawn) [fulvestrant], for which, where the note is “ER Positive (IHC)=F”, the “Evid. Level, ER Positive (IHC)” value is listed as 1. Further, where the note is “ER Positive (IHC)=T”, the “Bene. Level, ER Positive (IHC)” value was 1 and the “Evid. Level, ER Positive (IHC)” value is recorded as 1.

Take `CNC(=O)c1ccc(N2C(=S)N(c3ccc(C#N)c(C(F)(F)F)c3)C(=O)C2(C)C)cc1F` [enzalutamide]: for the setting “specific mutations in AR (e.g. F876L, AR-V7)”, the “resistance by AR mutations” value is reported as “F876L, AR-V7) are associated with resistance to newer-generation, AR-targeted therapies”.
